According to patent publication US12715848B2, “Process for the diastereomerically pure preparation of DL/LD-methionylmethionine” (Evonik Operations GmbH, priority 2020, dated 2026):
Values after ≈ are worked out from the molar mass of the structure shown. Residues, ends and D or L forms follow the SMILES beside them.

Columns and labels:
Minimum ignition energy = type: physicochemical
[1] = Determination of bulk density (1 L measuring cylinder); type: physicochemical
Description: The bulk density in kg/L was determined using a 1 L measuring cylinder, which was filled with the bulk material precisely to the 1000 ml mark, and was measured by weighing the weight of the contents so as to result in the bulk density directly.

Dust content = type: physicochemical; details: fraction <63 μm
[2] = Water solubility at room temperature

For `CSCCC(N)C(=O)NC(CCSC)C(=O)O` (stereo not drawn) [DLLD-Met-Met, DL/LD-methionylmethionine] (H-Met-Met-OH; configuration not given here), the minimum ignition energy (Minimum ignition energy; 100° C.) was “above 3 mJ”, the minimum ignition energy (Minimum ignition energy; room temperature) was “above 10 mJ” and the bulk density [1] was > 600 kg/m^3. The dust content (Dust content) was “approx. 10%”.

`CSCCC(N)C(=O)NC(CCSC)C(=O)O` (stereo not drawn) [DDLL-Met-Met, DD/LL-methionylmethionine] (H-Met-Met-OH; configuration not given here) gave a water solubility [2] of 21.0 mg/mL (≈ 74.9 mM).
